Test results published in patent publication US5693830A, “Process for preparing the spiropyrone compounds” (Tokuyama Corporation, priority 1994, dated 1997).

Experiment: Photochromic properties of spiropyran compounds in methyl polymethacrylate film
Type: physicochemical
Details: for ε (60 sec.) -ε (0 sec.): absorbancy at max. absorption wavelength, irradiated 60 seconds minus not irradiated; for ε (60 sec.) -ε (0 sec.) / Developed color tone: 25° C.; for λ MAX (max. absorption wavelength): color-developing film, spectrophotometer 220A; for Developed color tone: film 1.0×10^-4 mol/g, 0.1 mm thick, mercury lamp, 10 cm, 60 seconds; for t1/2 (half-value period): time until absorbancy decreases to one-half {ε(60 sec)-ε(0 sec)} after irradiation for 60 seconds
Protocol: The concentration of the above compound contained in the film was adjusted to be 1.0×10^-4 mol/g and the thickness was adjusted to be 0.1 mm. The photochromic film was exposed to the light of a mercury lamp SHL-100 produced by Toshiba Co. at a temperature of 25° C.+1° C. from a distance of 10 cm for 60 seconds so as to develop a color, in order to measure its photochromic properties. The photochromic properties were expressed as described below.
Max. absorption wavelength (λmax)
λmax of the color-developing film was found by using a spectrophotometer 220A manufactured by Hitachi, Ltd.
Absorbancy of the film at a maximum absorption wavelength after irradiated with light for 60 seconds under the above-mentioned conditions.
Absorbancy of the film that is not irradiated with light at a maximum absorption wave of when it is irradiated with light.
Time needed until the absorbancy of the film decreases to one-half {ε(60 sec)-ε(0 sec)} after irradiated with light for 60 seconds.

Compound	ε (60 sec.) -ε (0 sec.)	λ MAX (max. absorption wavelength) [nm]	Developed color tone	t1/2 (half-value period) [s]
3',4'-Dimethylspiro(2-bicyclo[3,3,1]nonene-9,2'-(2H)fluoro(2,3-b)pyran) [compound 38]	0.6	430	yellow	10
CCCCC1=CC2(Oc3c(C#N)cccc31)C1C=CCC2CCC1 (stereo not shown) [compound 29, 8'-Cyano-4'-n-butylspiro(2-bicyclo(3,3,1)nonene-9,2'-(2H)chromene)]	0.5	494	orange	11
CCCC12CC=CC(CCC1)C21C=C(CC)c2ccc3c(-c4ccccc4)cccc3c2O1 (stereo not shown) [compound 31, 7'-Phenyl-4'-ethyl-5-n-propylspiro(2-bicyclo[3,3,1]nonene-9,2'-(2H)benzo(h)chromene)]	0.7	460	yellow	90
CCCCC1=CC2(Oc3c1ccc1ccccc31)C1C=CCC2CCC1 (stereo not shown) [compound 32, 4'-n-Butylspiro(2-bicyclo[3,3,1]nonene-9,2'-(2H)benzo(h)chromene)]	0.8	445	yellow	110
C1=CC2CCCC(C1)C21Oc2ccc3ccccc3c2C=C1CCc1ccccc1 (stereo not shown) [compound 34, 3'-Benzylmethylspiro(2-bicyclo[3,3,1]nonene-9,2'-(2H)benzo(f)chromene)]	0.7	406	yellow	26
C1=CC2CCCC(C1)C21Oc2ccc3ccccc3c2C(c2ccccc2)=C1CCc1ccccc1 (stereo not shown) [compound 41, 3'-Benzylmethyl-4'-phenylspiro(2-bicyclo[3,3,1]nonene-9,2'-(2H)benzo(f)chromene)]	0.7	440	yellow	17
Spiro(2-bicyclo(3,3,1)nonene-9,2'-(2H)methylpyrrolo(2,3-b)pyran) [compound 27]	1.0	470	orange	48

The remaining lines, values ahead:

ε (60 sec.) -ε (0 sec.)	λ MAX (max. absorption wavelength) [nm]	Developed color tone	t1/2 (half-value period) [s]	Compound
0.9	402	yellow	16	ClC12CC=CC(CCC1)C21C=C(Cc2ccccc2)c2c(cnc3ccccc23)O1 (stereo not shown) [compound 28, 5-Chloro-4'-benzylspiro(2-bicyclo(3,3,1)nonene-9,2'-(2H)quino(3,4-b)pyran)]
0.6	480	orange	26	CC1(C)CCC2(C)CC=CC1C21C=C(c2ccccc2)c2cccnc2O1 (stereo not shown) [compound 30]
0.6	410	yellow	18	CCCC1=Cc2c(ccc3ccccc23)OC12C1C=CCC2CCC1 (stereo not shown) [compound 33, 3'-n-Propylspiro(2-bicyclo[3,3,1]nonene-9,2'-(2H)benzo(f)chromene)]
0.6	410	yellow	18	CC(C)C1=Cc2c(ccc3ccccc23)OC12C1C=CCC2CCC1 (stereo not shown) [compound 35, 3'-i-Propylspiro(2-bicyclo[3,3,1]nonene-9,2'-(2H)benzo(f)chromene)]
0.9	420	yellow	25	COc1ccc(C2=Cc3c(ccc4ccccc34)OC23C2C=CCC3CCC2)cc1 (stereo not shown) [compound 36, 3'-p-methoxyphenylspiro(2-bicyclo[3,3,1]nonene-9,2'-(2H)benzo(f)chromene)]
0.5	415	yellow	22	CCC1=Cc2c(cnc3ccccc23)OC12C1C=CCC2CCC1 (stereo not shown) [compound 37, 3'-Ethylspiro(2-bicyclo[3,3,1]nonene-9,2'-(2H)quino(3,4-b)pyran)]
0.6	465	orange	12	CCC1=C(Cc2ccccc2)C2(Oc3scc(Br)c31)C1C=CCC2CCC1 (stereo not shown) [compound 39, 4'-Ethyl-3'-benzyl-5'-bromospiro(2-bicyclo[3,3,1]nonene-9,2'-(2H)thieno(2,3-b)pyran)]
0.8	420	yellow	14	CCCC1=C(Cc2ccccc2)c2c(ccc3ccccc23)OC12C1C=CCC2CCC1 (stereo not shown) [compound 40, 3'-n-Propyl-4'-benzylspiro(2-bicyclo[3,3,1]nonene-9,2'-(2H)benzo(f)chromene)]
1.0	450	yellow	28	CCC1=C(CC)C2(Oc3c1ccc1ccccc31)C1C=CCC2CCC1 (stereo not shown) [compound 42, 3',4'-Diethylspiro(2-bicyclo[3,3,1]nonene-9,2'-(2H)benzo(h)chromene)]
